From patent publication US7880007B2, “Bicyclic substituted phenyl piperidine modulators of muscarinic receptors” (Vertex Pharmaceuticals Incorporated, priority 2004, dated 2011)

Tests used:
Format in all cases: cell-based
M2 muscarinic receptor = target: T1, M2 muscarinic receptor (Homo sapiens, UniProt P08172); experiment: Functional mobilization of intracellular calcium (FLIPR), M2-CHO cells; conditions: for Emax: 100% efficacy = maximum response obtained with the Carbachol control; for M2 Activity: M2-CHO cells, calcium mobilization (FLIPR)
T1 construct: expressed in transfected cells; host or cells: CHO (M2-CHO)
T1 sequence (P08172 1-466): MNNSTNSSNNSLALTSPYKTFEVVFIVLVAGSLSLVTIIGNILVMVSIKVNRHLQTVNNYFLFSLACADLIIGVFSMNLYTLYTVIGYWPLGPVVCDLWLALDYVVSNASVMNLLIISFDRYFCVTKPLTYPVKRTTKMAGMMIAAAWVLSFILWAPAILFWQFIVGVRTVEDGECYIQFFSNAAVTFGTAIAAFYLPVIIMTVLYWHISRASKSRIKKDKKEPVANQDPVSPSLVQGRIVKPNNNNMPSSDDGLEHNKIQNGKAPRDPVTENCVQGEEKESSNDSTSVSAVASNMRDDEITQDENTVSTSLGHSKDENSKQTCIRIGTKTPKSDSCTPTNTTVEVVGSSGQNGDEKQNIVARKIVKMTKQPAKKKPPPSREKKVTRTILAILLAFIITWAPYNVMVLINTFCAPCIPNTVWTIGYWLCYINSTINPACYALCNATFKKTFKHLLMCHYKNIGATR
Procedure: (§1) Functional Mobilization of Intracellular Calcium to Determine Muscarinic Receptor Activity:
(§2) CHO cells expressing muscarinic receptors (M1 to M5) are grown as monolayers in tissue culture flasks at 37° C. in a humidified atmosphere containing 5% CO2 and passaged every 3-5 days. The growth media is Dulbecco's modified eagles medium (DMEM, Gibco Cat #12430-054), containing 25 mM Hepes and supplemented with Fetal Bovine Serum (Hyclone, cat #SH30071.03), 0.1 mM of MEM non-essential amino acids (GIBCO, Cat #11140-050), 1 mM MEM Sodium Pyruvate (GIBCO Cat #11360-070) and 100 units/ml of Penicillin G and 100 μg/ml of Streptomycin (GIBCO Cat #15140-122). The recombinant muscarinic receptor cell lines are grown under antibiotic pressure with media containing 25 μg/ml zeocin and 500 μg/ml G418 (M1-CHO), 4 μg/ml puromycin, 50 μg/ml zeocin and 2.5 μg/ml blasticidin (M2 and M4-CHO) or 50 μg/ml zeocin and 4 μg/ml puromycin (M3 and M5-CHO).
(§3) Cells are harvested at 80-90% confluence using Versene (GIBCO Cat #15040-066), collected by centrifugation and seeded 18-24 hrs prior to running the calcium assay at a density of 5,000-10,000 cells/well in […], clear-bottomed 384-well plates (BD Biocoat, poly-D-lysine, Cat #356663). The day of the experiment, the cells are washed with a plate washer (Bioteck Instruments, ELX 405) using bath 1 buffer (140-mM NaCl, 4.5-mM KCl, 2-mM CaCl2, 1-mM MgCl2, 10-mM Hepes-Na, 10-mM Glucose, pH 7.4, with NaOH) containing 1 mM Probenecid. Next, the calcium dye Fluo-3 (25 μl/well of Fluo-3 AM at 4 μM, Molecular Probes F-1241, in Bath 1 buffer containing 1 mM Probenecid) is added to the 25 μl of Bath 1 remaining in each well after the plate wash and the dye is loaded at 37° C. in the tissue culture incubator for 60-90 min. The fluorescent dye is removed using the plate washer with Bath 1 containing 1 mM Probenecid, leaving 25 μl/well of this solution after the wash. Alternatively, cells can be loaded with the calcium indicator from Molecular Devices (Calcium 3 Assay Reagents, Cat #R7181) adding 5 μl of a 5× solution dye in Bath 1 containing 1 mM Probenecid (10 ml per dye flask cat #R7182 to generate a solution 20×) to 20 μl of the same buffer. After loading for 60 min, the experiment can be run without having to remove the dye.
(§4) Compounds are prepared at a 2× fold concentration in a 96-well plate (round bottom, Costar Corning cat #3656), by reconstituting the pre-spotted compounds in bath 1 containing 1 mM probenecid. The final concentration DMSO is 0.5%, and the amount of DMSO is normalized across the assay plate. To determine an agonist action of the compounds on muscarinic receptors, the reconstituted compounds are added (25 μl compound/well) to the cell assay plate (containing 25 μl/well) using the multi-channel robotic system of the FLIPR 3 Instrument (Molecular Devices, Sunnyvale, Calif.). To determine a functional inhibitory action of the compounds on muscarinic receptors, the reconstituted compounds are added (25 μl compound/well) to the assay plate and pre-incubated for 15 min prior to adding 25 μl of Carbachol at 3× the EC80 for each muscarinic subtype. Alternatively, the compounds can be co-applied simultaneously with the agonist. In both assay modes, the fluorescence is recorded for 60 sec (excitation wavelength is […] and emission wavelength 540 nm) using the FLIPR 3 instrument.
(§5) The potency, efficacy and selectivity of the muscarinic compounds were evaluated by screening the compound activity across the whole family (M1 to M5 cells). Compounds were also screened for activity on other proteins such as other GPCRs and ion channels to determine selectivity on M4 receptors.
(§6) Examples of activities and efficacies of the muscarinic compounds of formulae (I, Ia, Ib, and II) on modulating M1, M2, M3 and M4 receptors are shown below in Table 3. […]

M1 muscarinic receptor = target: T2, M1 muscarinic receptor (Homo sapiens, UniProt P11229); experiment: Functional mobilization of intracellular calcium (FLIPR), M1-CHO cells; conditions: for Emax: 100% efficacy = maximum response obtained with the Carbachol control; for M1 Activity: M1-CHO cells, calcium mobilization (FLIPR)
T2 construct: expressed in transfected cells; host or cells: CHO (M1-CHO)
T2 sequence (P11229 1-460): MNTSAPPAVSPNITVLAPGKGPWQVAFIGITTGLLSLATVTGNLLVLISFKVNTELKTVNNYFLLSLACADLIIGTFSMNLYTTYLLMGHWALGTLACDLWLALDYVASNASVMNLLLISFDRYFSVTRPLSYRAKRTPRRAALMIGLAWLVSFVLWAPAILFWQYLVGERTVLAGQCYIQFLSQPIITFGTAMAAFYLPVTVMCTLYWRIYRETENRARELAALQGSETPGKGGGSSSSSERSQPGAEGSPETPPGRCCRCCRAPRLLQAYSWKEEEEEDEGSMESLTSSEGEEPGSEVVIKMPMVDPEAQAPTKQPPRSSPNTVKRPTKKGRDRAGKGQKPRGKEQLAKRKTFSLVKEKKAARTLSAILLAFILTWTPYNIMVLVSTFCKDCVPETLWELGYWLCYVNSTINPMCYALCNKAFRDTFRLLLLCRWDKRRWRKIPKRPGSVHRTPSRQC
Procedure: as §1, §2, §3, §4, §5, §6

M4 muscarinic receptor = target: T3, M4 muscarinic receptor (Homo sapiens, UniProt P08173); experiment: Functional mobilization of intracellular calcium (FLIPR), M4-CHO cells; conditions: for Emax: 100% efficacy = maximum response obtained with the Carbachol control; for M4 Activity: M4-CHO cells, calcium mobilization (FLIPR)
T3 construct: expressed in transfected cells; host or cells: CHO (M4-CHO)
T3 sequence (P08173 1-479): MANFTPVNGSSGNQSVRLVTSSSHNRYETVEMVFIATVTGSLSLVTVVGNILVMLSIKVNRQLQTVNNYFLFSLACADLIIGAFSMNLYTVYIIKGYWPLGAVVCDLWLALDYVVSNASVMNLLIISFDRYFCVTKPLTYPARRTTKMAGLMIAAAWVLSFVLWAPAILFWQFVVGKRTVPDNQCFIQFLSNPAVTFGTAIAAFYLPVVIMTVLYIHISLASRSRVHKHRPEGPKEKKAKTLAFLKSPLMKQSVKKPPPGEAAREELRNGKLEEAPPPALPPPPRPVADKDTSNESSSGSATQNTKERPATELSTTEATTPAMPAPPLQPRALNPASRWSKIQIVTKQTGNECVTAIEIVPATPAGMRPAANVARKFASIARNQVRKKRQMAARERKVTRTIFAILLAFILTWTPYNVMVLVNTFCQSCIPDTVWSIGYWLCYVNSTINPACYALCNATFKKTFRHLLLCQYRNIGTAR
Procedure: as §1, §2, §3, §4, §5, §6

Row | SMILES | Emax (M2 muscarinic receptor) | M2 Activity (M2 muscarinic receptor) | Emax (M1 muscarinic receptor) | M1 Activity (M1 muscarinic receptor) | Emax (M4 muscarinic receptor) | M4 Activity (M4 muscarinic receptor)
1 | CCOC(=O)N1C2CCC1CC(CN1CCC(c3ccccc3OC)CC1)C2 (stereo not drawn) [Compound 20] | < 25% | + (activity was measured to be greater than 5.0 μM) | 25 to 100% | +++ (activity was measured to be less than 1.0 μM) | 25 to 100% | +++ (activity was measured to be less than 1.0 μM)
2 | COc1ccccc1C1CCN(CC2CC3CCC(C3)C2)CC1 (stereo not drawn) [Compound 28] | < 25% | + (activity was measured to be greater than 5.0 μM) | < 25% | + (activity was measured to be greater than 5.0 μM) | < 25% | + (activity was measured to be greater than 5.0 μM)
3 | CCOC(=O)N1CCC(N2CCC(OC)(c3cc(Cl)ccc3OC)CC2)CC1 [Compound 55] | < 25% | + (activity was measured to be greater than 5.0 μM) | 25 to 100% | +++ (activity was measured to be less than 1.0 μM) | 25 to 100% | +++ (activity was measured to be less than 1.0 μM)
4 | COc1ccccc1C1CCN(CC2CCC3CCC2C3)CC1 (stereo not drawn) [Compound 61] | < 25% | + (activity was measured to be greater than 5.0 μM) | < 25% | + (activity was measured to be greater than 5.0 μM) | 25 to 100% | ++ (activity was measured to be from 1.0 μM to 5.0 μM)
5 | COc1ccc(Cl)cc1C1(O)CCN(C2CC3CCC2C3)CC1 (stereo not drawn) [Compound 63] | < 25% | + (activity was measured to be greater than 5.0 μM) | < 25% | + (activity was measured to be greater than 5.0 μM) | 25 to 100% | + (activity was measured to be greater than 5.0 μM)
6 | COc1ccc(NC(C)=O)cc1C1CCN(C2C[C@H]3CC[C@H](C2)C3)CC1 (stereo partly drawn) [Compound 75] | < 25% | + (activity was measured to be greater than 5.0 μM) | < 25% | + (activity was measured to be greater than 5.0 μM) | 25 to 100% | ++ (activity was measured to be from 1.0 μM to 5.0 μM)
7 | COc1ccc(Cl)cc1C1(OC)CCN(C2CCC3CCC2C3)CC1 (stereo not drawn) [Compound 80] | < 25% | ++ (activity was measured to be from 1.0 μM to 5.0 μM) | 25 to 100% | ++ (activity was measured to be from 1.0 μM to 5.0 μM) | 25 to 100% | +++ (activity was measured to be less than 1.0 μM)
8 | Cc1ccc(F)cc1C1CCN([C@H]2CC[C@H]3CC[C@H]2C3)CC1 [Compound 81] | 25 to 100% | + (activity was measured to be greater than 5.0 μM) | 25 to 100% | + (activity was measured to be greater than 5.0 μM) | 25 to 100% | ++ (activity was measured to be from 1.0 μM to 5.0 μM)
9 | COc1ccc(Cl)cc1C1CCN(CC2CCCCC2)CC1 [Compound 91] | < 25% | + (activity was measured to be greater than 5.0 μM) | < 25% | ++ (activity was measured to be from 1.0 μM to 5.0 μM) | 25 to 100% | ++ (activity was measured to be from 1.0 μM to 5.0 μM)
10 | CCOC(=O)N1C2CCC1CC(N1CCC(O)(c3cc(F)ccc3C)CC1)C2 (stereo not drawn) [Compound 95] | < 25% | + (activity was measured to be greater than 5.0 μM) | 25 to 100% | +++ (activity was measured to be less than 1.0 μM) | 25 to 100% | +++ (activity was measured to be less than 1.0 μM)
11 | Cc1ccc(Cl)cc1C1CCN(C2CC[C@H]3CC[C@H]2C3)CC1 (stereo partly drawn) [Compound 96] | 25 to 100% | ++ (activity was measured to be from 1.0 μM to 5.0 μM) | 25 to 100% | +++ (activity was measured to be less than 1.0 μM) | 25 to 100% | +++ (activity was measured to be less than 1.0 μM)
12 | COc1ccc(Cl)cc1C1(O)CCN(C2CCCCC2)CC1 [Compound 99] | < 25% | + (activity was measured to be greater than 5.0 μM) | < 25% | + (activity was measured to be greater than 5.0 μM) | 25 to 100% | ++ (activity was measured to be from 1.0 μM to 5.0 μM)
13 | COc1ccc(Cl)cc1C1(OC)CCN(C2CCCCCC2)CC1 [Compound 101] | < 25% | + (activity was measured to be greater than 5.0 μM) | 25 to 100% | ++ (activity was measured to be from 1.0 μM to 5.0 μM) | 25 to 100% | +++ (activity was measured to be less than 1.0 μM)
